# In patent publication US7195890B2, “Methods and compositions for modulating proteins modified in preconditioning against ischemia/hypoxia” (Queen's University at Kingston, priority 2003, dated 2007):
# Test system: rabbit ventricular myocytes
# Assay: Two-dimensional gel electrophoresis proteomic analysis of protein modifications in pharmacologically preconditioned isolated ventricular myocytes
# Type: cell-based
# Conditions: 100 μmol/L, 60 minutes, 37° C.; for level of ADP ribosyl hydrolase: drug treated extracts relative to matching control extracts
# Description: Protein modifications occurring during preconditioning were identified by a multi-tiered two-dimensional gel electrophoresis approach (see FIG. 3) and subsequent analysis of the cytoplasmic and TFA extracts of adenosine and diazoxide-treated isolated cardiomyocytes (n=4) at concentrations capable of invoking preconditioning. […] The modified proteins identified herein are referred to as preconditioning proteins. Ventricular myocytes from New Zealand White rabbits (weighing 1 to 2 kg) were isolated by collagenase dissociation, as described previously by Liu et al. (Circ. Res. 1996 78:443–454). Hearts were excised, then perfused with collagenase (1.0 mg/mL, Worthington type II) for 14 minutes at a maintained perfusion pressure of 75 mm Hg on a Langendorff apparatus, yielding>50% Ca^2+-tolerant ventricular myocytes. Cell isolation was followed directly by pharmacological preconditioning, which was carried out by treatment with 100 μmol/L adenosine (Sigma) or with 100 μmol/L diazoxide (Sigma) for 60 minutes in a 37° C. water bath, as described previously by Liu et al. supra. Untreated cells were prepared concurrently as drug-free controls. Equivalent 25 μL aliquots of cells (containing ˜30 mg/mL of protein as determined by Lowry assay (Lowry, O. H. J. Biol. Chem. 1951 193:265–275) were frozen and stored at −80° C. until analysis. All steps in this Protein extraction protocol, referred to herein as “In Sequence” and depicted in FIG. 3, produce physiological pH (cytosolic) and acidic pH enriched extracts were carried out at 4° C., and all centrifugations were conducted at 16000×g for 2 minutes at 4° C. Myocyte proteins were first extracted by two rounds of homogenization in 100 μL of HEPES extraction buffer, consisting of (in mmol/L) HEPES 25 (pH 7.4), NaF 50, Na3VO4 0.25, phenylmethylsulfonyl fluoride 0.25, EDTA 0.5, and (in μmol/L) leupeptin 1.25, pepstatin A 1.25. Following homogenization and centrifugation, the supernatants were pooled and saved as the cytosolic extract. The remaining pellet was subjected to further extraction by two rounds of homogenization in 50 μL of acid extraction buffer, consisting of 1% v/v trifluoroacetic acid (TFA) and 1 mmol/L Tris(2-carboxyethylphosphine)hydrochloride (pH ˜2.0). Supernatants were again pooled, and saved as the acid extract. The two extracts and remaining pellet were frozen and stored at −80° C. Isoelectric focusing (IEF) of cytosolic and TFA extracts were carried out using a Protean® IEF cell (Bio-Rad) according to the manufacturer's protocol. Protein loads ranging from 5 up to 250 μg per gel were added to the following rehydration buffers: for cytosolic extracts, 8 M urea, 2.5 M thiourea, 4% CHAPS, 2 mM EDTA, and 25 mM DTT, and in the case of pH 6–9 strips, CHAPS and DTT were substituted by 4% ASB-14 and 5.4% (w/v) 2-hydroxyethyl disulfide, respectively; for acidic extracts, 8 M urea, 4% CHAPS, and 25 mM DTT. Immobilized pH gradient (IPG) Ready Strips™ (170 mm pH 4–7, 6–9, or 3–10 linear gradient, Bio-Rad) were actively rehydrated at 50 volts (V) for 10 hours to enhance protein uptake, then subjected to the following conditions using a rapid voltage ramping method: 100 V for 25 Volt-hours (Vh), 500 V for 125 Vh, 1000 V for 250 Vh, and 8000 V for 65 kVh. A Peltier temperature control platform maintained gels at 20° C. throughout IEF. Focused gels were stored at −20° C. prior to sodium dodecyl sulfate-polyacrylamide gel electrophoresis (SDS-PAGE). For SDS-PAGE, IPG strips were incubated for 10 minutes in equilibration buffer (50 mmol/L Tris-HCl, pH 8.8, 6 mol/L urea, 30% v/v glycerol, 2% w/v SDS) supplemented with 10 mg/mL DTT, followed by a 10 minute incubation in equilibration buffer supplemented with 25 mg/mL iodoacetamide, then rinsed once with SDS-PAGE buffer (25 mmol/L Tris, 192 mmol/L glycine, pH 8.3, 0.1% w/v SDS). IEF strips were then embedded in a 5% acrylamide stacking gel and the proteins were resolved by 10 or 12.5% SDS-PAGE using a Protean® II XL system (Bio-Rad). […]
# [1] = 2-D gels vs untreated control myocytes, n=4
level of NG-dimethylarginine dimethylaminohydrolase (DDAH) [1],level of RNA binding protein regulatory subunit (DJ-1) [1],level of aldehyde dehydrogenase [1],level of isocitrate dehydrogenase NAD+ specific subunit alpha (IDH) [1],level of succinyl CoA ligase [ADP forming] beta chain [1],level of ADP ribosyl hydrolase,level of dihydrolipoamide succinyltransferase [1],post-translational modification of protein X (E3 binding protein of the pyruvate dehydrogenase complex) [1],Compound,level of 24 kDa subunit (mitochondrial precursor) of Complex I [1],level of 30 kDa subunit (mitochondrial precursor) of Complex I [1],level of HSP27 [1],level of core protein I of Complex III [1],level of metaxin 2 [1],level of prohibitin [1],level of δ chain (mitochondrial precursor) of the F1 portion of Complex V [1],"extent of post-translational modification of the β chain of F1 portion (mitochondrial precursor) of Complex V (2-D gels, silver stain or western blot, vs control, two additional more acidic spots)",level of 23 kDa subunit (mitochondrial precursor) of Complex I [1],level of d chain (mitochondrial precursor) of the F0 portion of Complex V [1],"sarcalumenin (58 kDa isoform) levels (HEPES extract, 2-D gels vs untreated control myocytes)"
decreases,increased,increased,increase,increase,increased,–,–,Nc1ncnc2c1ncn2[C@@H]1O[C@H](CO)[C@@H](O)[C@H]1O [adenosine],increases,increases,"did not, however, observe a change",decreased,reduced,increase,increases,increase,–,–,–
increased,increased,increased,increases,–,increased,decrease,increases,CC1=NS(=O)(=O)c2cc(Cl)ccc2N1 [diazoxide],increased,increased,increase,decreased,reduced,–,increased,–,increased,increased,decrease
